Counter-ions that a name gives are not always drawn. Like-named read-outs stand apart in the source and are kept apart here. Peptide text beside a SMILES is read from it. * marks the point of attachment. Cbz = O=C(OCc1ccccc1)*
How the values were obtained:
[1] = tested on: HeLa cells co-transfected with a luciferase construct together with Q79-GFP; assay: Protein synthesis by luciferase activity in Q79 expressing HeLa cells; format: cell-based
cells; primary neurons = assay: Compound toxicity in cells; format: cell-based
Q79-GFP aggregates = assay: Decrease of pre-formed Q79-GFP aggregates in vitro; format: biochemical; conditions: 100 μM each; visually examined
Experimental: Q79-GFP was expressed and purified from bacteria using standard molecular biology techniques. These fusion proteins form aggregates in vitro which can be viewed under an inverted fluorescence microscope. The Q79-GFP aggregates were administered Congo red (1 nM to 100 μM) and the ability of Congo red to decrease the aggregate was visually assessed.
This assay was also carried out on Q79-GFP aggregates that were administered compounds known to disrupt other types of aggregates, for example, beta-amyloid fibril aggregates. The Q79-GFP aggregates were administered Iota-carrageenan, dextran, minocycline, rolitetracycline, or Chrysamine G Congo red (100 μM each), and visually examined for the effect of each compound on disruption of the aggregate, as well as the density and size of the aggregates.

[2] = tested on: HeLa cells transfected with a Q79-GFP construct; assay: Polyglutamine-induced cell death in HeLa cells; format: cell-based; conditions: Q79-GFP, compound added six hours after transfection, 1 nM to 100 μM (FIG. 4A: 100 μM), seventy-two hours post-transfection
Experimental: FIG. 4A is two graphs showing the effect of Congo red, tetracyclines, and sulfated polyanions on polyglutamine-induced cell death in, each graph representing a separate experiment. HeLa cells transfected with a Q79-GFP construct were treated with 100 μM of minocycline (mino), Chrysamine G (CG), Rolitetracycline (Ro), iota carrageenan (iota), dextran 500 (dextran), or Congo red (CR), six hours after transfection. The amount of cell death was determined 48 hours after transfection by morphological criteria as previously described (Sanchez et al., supra).
In a cell expressing Q79-GFP polypeptides, polyglutamine aggregates are formed and the cell dies by apoptosis (Sanchez, supra). Cell viability was determined by morphological criteria characteristic of apoptosis, including cell blebbing, shrinking. Total cell lysates and tissue homogenates were obtained using Buffer A: 1% triton in PBS, containing 10 μg/ml DNAse and protease inhibitors; leupeptin 20 μg/ml, aprotinin 20 u/ml, and PMSF 100 mM. The proteins were separated by 12% SDS/PAGE and transferred to PVDF Immobilon membrane (Millipore, Inc). Antibodies used included rabbit polyclonal antibodies; EM48 (Li et al., Mol. Neurobiol. 20:111-124, 2000) anti-heat shock proteins 40 and 70 (Stressgen, Co.), and rat monoclonal anti-caspase-8 antibody.
These effects were determined by visual inspection of GFP-positive cells under an inverted fluorescence microscope. In addition, the occurrence of apoptosis of these transfected cell samples was confirmed by staining the cells with trypan blue, propidium iodide, or Hoescht 33342 to examine the cellular or nuclear morphology.
Compounds that disrupt other types of aggregates, for example, amyloid fibril aggregates were tested for their ability to disrupt pre-formed polyglutamine aggregates. HeLa Cells were transfected with a Q79-GFP construct. Six hours later, Iota-carrageenan, dextran, minocycline, rolitetracycline, and Chrysamine G (1 nM to 100 μM) were each incubated with the cells. Seventy-two hours post-transfection, the cells were evaluated for the occurrence of cell death, by visual inspection under an inverted fluorescence microscope.

GST-Q81 beads = assay: Chemical absorption assay, Q81; format: binding; conditions: 25 μM of each (FIG. 6B)
Experimental: FIG. 6B is a graph of the percent of binding of various compounds to amyloid-like Q81 aggregates measured using a chemical absorption assay. The anti-amyloid compounds minocycline, Chrysamine G, Rolitetracycline, iota carrageenan, dextran 500 (dextran), or Congo red (25 μM of each) were pre-absorbed with Q81 GST recombinant protein and the percentage absorbance of the compound remaining in the supernatant after absorption with GST-Q81 beads is plotted on the y-axis.
To determine if Congo red and its derivatives directly bind to expanded polyglutamine aggregates, we designed a chemical absorption assay. This assay measures the remaining Congo red in the supernatant after incubating the supernatant with GST-tagged polyglutamine beads, and removing the GST-polyglutamine beads by centrifugation. This assay was carried out as follows. Recombinant protein GST-Q19, GST-Q62, and GST-Q81 (containing 19, 62, and 81 polyglutamines, respectively) was purified from E. coli by glutathione beads. After several washes with PBS containing protease inhibitors, the beads were allowed to settle to the bottom of the tube at 24° C. for 10 minutes. The polyglutamine-bound beads were aliquoted and diluted with two volumes of 10 μg/ml of Congo red in PBS. The beads were mixed and centrifuged at 15,000 rpm for 2 minutes and the supernatant was removed and diluted 1:100. The percentage absorbance of the compound remaining in the supernatant after absorption with the GST-polyQ beads was then detected. In addition, Congo red- or PBS-only treated polyglutamine polypeptide bead pellets were washed three times with 100 volumes of PBS and then the protein was separated by 12% polyacrylamide gels and immunoblotted as mentioned above. Some blots were used for immunostaining with anti-polyglutamine antibody (EM48). Other blots were left unstained to visualize the red color of Congo red that entered the gel along with the polyglutamine protein.
Binding of the above-identified compounds to amyloid-like Q81 aggregates was also assessed by a chemical absorption assay. The compounds indicated in FIG. 19 (25 μM of each) were pre-absorbed with a Q81 GST recombinant protein and the percentage absorbance of the compound remaining in the supernatant after absorption with GST-Q81 beads was then detected.

[3] = tested on: non-transfected HeLa cells; assay: Total cellular protein degradation; format: cell-based; conditions: Congo red 100 μM, ZVAD 100 μM, MG132 10 μM; H3-tyrosine release, 0 to 180 minutes
Experimental: FIG. 8C is a graph of the effect of effect of Congo red, ZVAD, or the proteosome inhibitor MG132 on total cellular protein degradation in non-transfected HeLa cells.
To rule out the possibility that Congo red may have an effect on protein degradation in general, we tested the effect of Congo red on proteosome degradation. Rates of total cellular protein degradation experiments, from cells seeded in 12 well dishes at 2×10^4, treated with Congo red (100 μM), ZVAD (100 μM), or the proteosome inhibitor MG132 (10 μM) and labeled with 5 μCi/ml of H^3-tyrosine for 1 hour. One hundred microliter culture medium aliquots were collected at 0, 30, 60, 90, 120, and 180 minute time points, and the levels of H^3-tyrosine were determined using an LS6000 scintillation counter (Beckman, Co).

[4] = Q79 expressing HeLa cells, various concentrations

Question: How did the “protection against inhibition of protein synthesis (luciferase activity)” value (“protection against inhibition” below) [1, 4] turn out when C[C@H]1C[C@@H]2[C@H]([C@@H](O)C[C@@]3(C)[C@H]2CC[C@]3(O)C(=O)COC(=O)CCC(=O)O)[C@@]2(C)C=CC(=O)C=C12 [6a-methylprednisolone 21-hemisuccinate] was run?
Answer: found to protect against inhibition of protein synthesis

Question: With Cn1cnc([N+](=O)[O-])c1Sc1ncnc2nc[nH]c12 [azathioprine] as the compound, how does the “protection against inhibition” value [1, 4] read?
Answer: found to protect against inhibition of protein synthesis

Question: With CC(C)C[C@H]1C(=O)N2CCC[C@H]2[C@]2(O)O[C@](NC(=O)[C@@H]3C=C4c5cccc6[nH]c(Br)c(c56)C[C@H]4N(C)C3)(C(C)C)C(=O)N12 [bromocriptine mesylate] as the compound, how does the “protection against inhibition” value ([1]; […], various concentrations) read?
Answer: found to protect against inhibition of protein synthesis

Question: How did the “compound toxicity in cells” value (cells; primary neurons) turn out when COc1cccc2c1C(=O)c1c(O)c3c(c(O)c1C2=O)C[C@@](O)(C(C)=O)C[C@@H]3O[C@H]1C[C@H](N)[C@H](O)[C@H](C)O1 [daunomycin, reference compound] was run?
Answer: highly toxic to cells

Question: What about the “dissolution or disruption of pre-formed expanded polyglutamine repeat aggregates” value (Q79-GFP aggregates) of the same compound?
Answer: dissolution or disruption of pre-formed expanded polyglutamine repeat aggregates were detected

Question: N[C@@H]1CONC1=O [D-cycloserine] was tested. Which “protection against inhibition” value [1, 4] did it give?
Answer: found to protect against inhibition of protein synthesis

Question: What does the source list for iota-carrageenan?
Answer: Polyglutamine-induced Cell Death [2]: +++ (Each + indicates approximately 20% cell death.); binding to 81-repeat polyglutamine polypeptide (GST-Q81 beads): binds to expanded polyglutamines; dissolution or disruption of pre-formed expanded polyglutamine repeat aggregates (Q79-GFP aggregates): detected only after Congo red addition and daunomycin addition

Question: What does the source list for O=C(O)c1cc(/N=N/c2ccc(-c3ccc(/N=N/c4ccc(O)c(C(=O)O)c4)cc3)cc2)ccc1O [Chrysamine G]?
Answer: Polyglutamine-induced Cell Death [2]: +++ (Each + indicates approximately 20% cell death.); binding to 81-repeat polyglutamine polypeptide (GST-Q81 beads): binds to expanded polyglutamines; dissolution or disruption of pre-formed expanded polyglutamine repeat aggregates (Q79-GFP aggregates): detected only after Congo red addition and daunomycin addition

Question: How did the “Polyglutamine-induced Cell Death” value [2] turn out when CN(C)c1ccc(O)c2c1C[C@H]1C[C@H]3[C@H](N(C)C)C(O)=C(C(N)=O)C(=O)[C@@]3(O)C(O)=C1C2=O [minocycline] was run?
Answer: +++ (Each + indicates approximately 20% cell death.)

Question: Which “protection against inhibition” value [1, 4] does the source give for O=C(CCCN1CCC(O)(c2ccc(Cl)cc2)CC1)c1ccc(F)cc1 [haloperidol] here?
Answer: found to protect against inhibition of protein synthesis

Question: With CN(C)[C@@H]1C(O)=C(C(=O)NCN2CCCC2)C(=O)[C@@]2(O)C(O)=C3C(=O)c4c(O)cccc4[C@@](C)(O)[C@H]3C[C@@H]12 [rolitetracycline] as the compound, how does the “Polyglutamine-induced Cell Death” value [2] read?
Answer: +++ (Each + indicates approximately 20% cell death.)

Question: Which “Polyglutamine-induced Cell Death” value [2] does the source give for dextran here?
Answer: +++ (Each + indicates approximately 20% cell death.)

Question: And the “binding to 81-repeat polyglutamine polypeptide” value (GST-Q81 beads)?
Answer: binds to expanded polyglutamines

Question: What about the “dissolution or disruption of pre-formed expanded polyglutamine repeat aggregates” value (Q79-GFP aggregates) of the same compound?
Answer: detected only after Congo red addition and daunomycin addition

Question: For [O]=[Mg] [magnesium oxide], which “protection against inhibition” value ([1]; […], various concentrations) is on record?
Answer: found to protect against inhibition of protein synthesis

Question: Which “protection against inhibition” value [1, 4] does the source give for COc1ccc2cc(CCC(C)=O)ccc2c1 [nabumetone] here?
Answer: found to protect against inhibition of protein synthesis

Question: With CCC1(c2ccccc2)C(=O)NCNC1=O [primidone] as the compound, how does the “protection against inhibition” value [1, 4] read?
Answer: found to protect against inhibition of protein synthesis

Question: Which “protection against inhibition” value [1, 4] does the source give for Nc1ccc(/N=N/c2ccccc2)c(N)n1 [phenazopyridine] here?
Answer: found to protect against inhibition of protein synthesis

Question: With CCCCCCCCC(=O)NCc1ccc(O)c(OC)c1 [N-vanillylnonanmide] as the compound, how does the “protection against inhibition” value [1] read?
Answer: found to protect against inhibition of protein synthesis

Question: neostigmine methyl ether was tested. Which “protection against inhibition” value ([1]; […], various concentrations) did it give?
Answer: found to protect against inhibition of protein synthesis

Question: Which “protection against inhibition” value ([1]; […], various concentrations) does the source give for R-(−)-deprenyl hydrochloride here?
Answer: found to protect against inhibition of protein synthesis

Question: With C[C@]12CCC(=O)C=C1CC[C@@H]1[C@@H]2[C@@H](O)C[C@@]2(C)[C@H]1CC[C@]2(O)C(=O)CO [hydrocortisone] as the compound, how does the “protection against inhibition” value [1, 4] read?
Answer: found to protect against inhibition of protein synthesis

Question: How did the “protection against inhibition” value ([1]; […], various concentrations) turn out when C[C@H]1O[C@@H](O[C@H]2[C@@H](O)C[C@H](O[C@H]3[C@@H](O)C[C@H](O[C@H]4CC[C@@]5(C)[C@H](CC[C@@H]6[C@@H]5C[C@@H](O)[C@]5(C)[C@@H](C7=CC(=O)OC7)CC[C@]65O)C4)O[C@@H]3C)O[C@@H]2C)C[C@H](O)[C@@H]1O [digoxin] was run?
Answer: found to protect against inhibition of protein synthesis

Question: For CC(C)C[C@@H](C=O)NC(=O)[C@H](CC(C)C)NC(=O)[C@H](CC(C)C)NC(=O)OCc1ccccc1 [MG132] (Cbz-Leu-Leu-Leu-aldehyde), which general protein degradation [3] is on record?
Answer: inhibited

Reference: patent US20020155172A1, “Methods and compounds for decreasing cell toxicity or death” (priority 2000, published 2002)
